This is an account of results in US20090028925A1, “Novel Phosphinic Acid-Containing Thyromimetics” (priority 2005, published 2009).

In general, Ki refers to the equilibrium dissociation constant of an inhibitor or competing ligand from its target.

Read-outs that look alike come from different tables or passages of the source.

In experiment [1] the target is T1, human thyroid hormone receptors TRα1 (Homo sapiens, UniProt P10827).
T1 construct: made in house; host or cells: Sf9 insect cells (baculovirus)
T1 sequence (P10827 1-410 isoform P10827-2): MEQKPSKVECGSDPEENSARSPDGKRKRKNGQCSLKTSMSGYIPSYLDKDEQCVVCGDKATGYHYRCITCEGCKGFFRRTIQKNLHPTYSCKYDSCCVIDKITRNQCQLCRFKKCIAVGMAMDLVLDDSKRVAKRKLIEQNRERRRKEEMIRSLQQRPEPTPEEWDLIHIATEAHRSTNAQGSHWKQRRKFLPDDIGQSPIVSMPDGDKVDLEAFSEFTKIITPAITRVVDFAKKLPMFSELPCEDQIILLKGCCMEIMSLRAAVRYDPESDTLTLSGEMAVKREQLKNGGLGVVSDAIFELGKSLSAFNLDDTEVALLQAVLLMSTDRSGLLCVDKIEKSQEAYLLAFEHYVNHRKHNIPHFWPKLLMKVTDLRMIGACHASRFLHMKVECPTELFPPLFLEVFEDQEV
T1 sequence (P19793 1-462 partner): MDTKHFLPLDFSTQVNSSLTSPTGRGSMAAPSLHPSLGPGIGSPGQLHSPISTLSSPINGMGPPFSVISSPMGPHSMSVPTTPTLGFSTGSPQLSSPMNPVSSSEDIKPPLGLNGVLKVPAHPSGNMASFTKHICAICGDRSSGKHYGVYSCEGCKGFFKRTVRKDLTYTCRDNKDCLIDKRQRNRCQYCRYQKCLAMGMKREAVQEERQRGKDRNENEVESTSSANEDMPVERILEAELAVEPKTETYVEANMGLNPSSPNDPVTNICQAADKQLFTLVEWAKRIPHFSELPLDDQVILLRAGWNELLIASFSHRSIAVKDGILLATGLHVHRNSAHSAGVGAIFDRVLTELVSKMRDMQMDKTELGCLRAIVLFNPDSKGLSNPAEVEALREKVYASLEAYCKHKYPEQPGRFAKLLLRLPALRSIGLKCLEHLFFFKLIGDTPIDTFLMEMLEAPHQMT
Briefly: Receptor binding to TRα1 (gel filtration and scintillation proximity assay, labeled T3). To be noted: SPA data; read-out: Ki TRα.

Experiment [2] deals with T2, human thyroid hormone receptors TRβ1 (Homo sapiens, UniProt P10828).
T2 construct: made in house; host or cells: Sf9 insect cells (baculovirus)
T2 sequence (P10828 1-461): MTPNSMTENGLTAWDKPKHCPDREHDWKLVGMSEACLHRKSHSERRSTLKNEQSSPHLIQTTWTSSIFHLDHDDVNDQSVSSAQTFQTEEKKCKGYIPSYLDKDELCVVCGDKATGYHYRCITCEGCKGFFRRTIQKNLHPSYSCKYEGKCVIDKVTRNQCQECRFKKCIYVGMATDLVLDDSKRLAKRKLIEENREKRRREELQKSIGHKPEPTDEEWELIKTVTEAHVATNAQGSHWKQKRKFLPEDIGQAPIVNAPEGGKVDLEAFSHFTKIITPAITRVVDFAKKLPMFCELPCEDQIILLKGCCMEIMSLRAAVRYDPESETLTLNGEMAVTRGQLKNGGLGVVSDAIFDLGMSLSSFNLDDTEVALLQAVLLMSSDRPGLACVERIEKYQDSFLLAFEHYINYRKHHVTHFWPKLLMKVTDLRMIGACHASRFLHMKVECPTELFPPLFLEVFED
T2 sequence (P19793 1-462 partner): T1 sequence (P19793 1-462 partner)
Description: Receptor binding to TRβ1 (gel filtration and scintillation proximity assay, labeled T3). As to conditions: read-out: Ki TRβ. On the technique in general: Size exclusion chromatography separates by hydrodynamic size, large species first.

In another experiment the test system is plasma cholesterol. Description: Cholesterol lowering in hypercholesterolemic rats. It counts as in vivo. To be noted: Rattus norvegicus, percentage change from pre-dose cholesterol, read-out: % Cholesterol Lowering.
The mark [3] stands for this setting: ip, delivered i.p (0.2 mg/kg/d).
The mark [4] stands for this setting: po, delivered p.o. (0.2 mg/kg/d).

In the case of `Cc1cc(OCP(=O)(O)O)cc(C)c1Cc1ccc(O)c(C(=O)NCCc2ccccc2)c1` [Compound 37, [3,5-dimethyl-4-(4′-hydroxy-3′-phenethylcarbamoylbenzyl)phenoxy]methylphosphonic acid], the figures for the Ki in experiment [1] and in experiment [2] (SPA data) were 294 nM and 23 nM, respectively. The change in vivo at 0.2 mg/kg/day with plasma cholesterol (setting [3]) is -0.4%.
For `CCC(CC)c1cc(Cc2c(C)cc(OCP(=O)(O)O)cc2C)ccc1O` [Compound 7-9, [3,5-dimethyl-4-[3′-(1-ethylpropyl)-4′-hydroxybenzyl]phenoxy]methylphosphonic acid], the figures for the Ki in experiment [1] and in experiment [2] (SPA data) were 110 nM and 5.4 nM, respectively. In addition, the change in vivo at 0.2 mg/kg/day with plasma cholesterol (setting [3]) is -63.2%; in the experiment with plasma cholesterol (setting [4]), -38.4%.
As to `CCC(C)c1cc(Cc2c(C)cc(CCP(=O)(O)O)cc2C)ccc1O` (centres unmarked) [Compound 24-3, 2-[4-(3′-sec-butyl-4′-hydroxy-benzyl)-3,5-dimethyl-phenyl]-ethylphosphonic acid], the Ki was 113 nM in experiment [1] and 2.87 nM in experiment [2] (SPA data). Further, the change in vivo at 0.2 mg/kg/day in the experiment on plasma cholesterol (setting [3]) was -48.6%.
In the same order, the values of `Cc1cc(OCP(=O)(O)O)cc(C)c1Cc1ccc(F)c(C(C)C)c1` [Compound 27, [3,5-dimethyl-4-(4′-fluoro-3′-iso-propylbenzyl)phenoxy]methylphosphonic acid] are more than 2000 nM, more than 2000 nM and -20.8%.
In the same order, the values of `Cc1cc(NCP(=O)(O)O)cc(C)c1Cc1ccc(O)c(C(C)C)c1` [Compound 47, [3,5-Dimethyl 4-(4′-hydroxy-3′-iso-propylbenzyl)-phenylamino]methylphosphonic Acid] are 24.3 nM, 2.5 nM and -29.3%.
Consider `Cc1cc(OCP(=O)(O)O)c(C)c(C)c1Cc1ccc(O)c(C(C)C)c1` [Compound 61, [4-(4′-hydroxy-3′-isopropylbenzyl)-2,3,5-trimethylphenoxymethyl]phosphonic acid], for which the inhibitory constant (Ki) in experiment [1] is 42.7 nM; in experiment [2] (SPA data), 1.4 nM. For the same compound, the change in vivo at 0.2 mg/kg/day with plasma cholesterol (setting [4]) is -33.7%.
Take `Cc1cc(S(=O)(=O)CP(=O)(O)O)cc(C)c1Cc1ccc(O)c(C(C)C)c1` [Compound 52, [3,5-dimethyl-4-(4′-Hydroxy-3′-iso-propylbenzyl)benzenesulfonyl]methylphosphonic acid]: the figures for the Ki in experiment [1] and in experiment [2] (SPA data) were more than 2000 nM and 48 nM, respectively. The change in vivo at 0.2 mg/kg/day in the experiment with plasma cholesterol (setting [3]) is -18.8%.
Regarding `CC(C)c1cc(Oc2c(Br)cc(CP(C)(=O)O)cc2Br)ccc1O` [Compound 71, [3,5-Dibromo-4-(4′-hydroxy-3′-isopropylphenoxy)benzyl]methylphosphinic Acid], the Ki is 4 nM in experiment [1] and 0.4 nM in experiment [2] (SPA data). Also, the change in vivo at 0.2 mg/kg/day in the experiment with plasma cholesterol (setting [4]) was -54.4%.
As to `Cc1cc(/C=C/P(=O)(O)O)cc(C)c1Oc1ccc(O)c(C(C)C)c1` [Compound 28, trans-2-[3,5-dimethyl-4-(4′-hydroxy-3′-iso-propylphenoxy)phenyl]vinylphosphonic acid], the Ki in experiment [1] is 375 nM; in experiment [2] (SPA data), 14 nM. In addition, the change in vivo at 0.2 mg/kg/day with plasma cholesterol (setting [3]) was -20.5%.
Take `Cc1cc(OCP(=O)(O)O)cc(C)c1Cc1ccc(O)c(C2CC2)c1` [Compound 48, [4-(3′-cyclopropyl-4′-hydroxybenzyl)-3,5-dimethylphenoxy]methylphosphonic acid]: the Ki in experiment [1] was determined as 129 nM; in experiment [2] (SPA data) it was 9 nM. The change in vivo at 0.2 mg/kg/day with plasma cholesterol (setting [3]) was -23.4%.
Consider `O=P(O)(O)Cc1cc(I)c(Oc2ccc(O)c(I)c2)c(I)c1` [Compound 6, 3,5-diiodo-4-(4′-hydroxy-3′-iodophenoxy)benzylphosphonic acid], for which the figures for the Ki in experiment [1] and in experiment [2] were 16 nM and 26 nM, respectively. Moreover, the change in vivo at 0.2 mg/kg/day with plasma cholesterol (setting [3]) was -20.5%.
For `Cc1cc2oc(P(=O)(O)O)cc2c(C)c1Cc1ccc(O)c(C(C)C)c1` [Compound 45, [4,6-Dimethyl-5-(4′-hydroxy-3′-iso-propyl)benzyl]benzofuran-2-phosphonic Acid], the Ki came to 216 nM in experiment [1] and 14 nM in experiment [2] (SPA data). Also, the change in vivo at 0.2 mg/kg/day is -46.3% in the experiment on plasma cholesterol (setting [3]) and -40.4% in the experiment with plasma cholesterol (setting [4]).
